Assay results reported in patent publication US20060035966A1, “Irreversible selective androgen receptor modulators and methods of use thereof” (priority 2002, published 2006).
Where two headings read alike, the source gives them in different places.

Key:
[1] = system: DU 145 prostate cancer cell line; experiment: Cytotoxicity, SRB assay, DU 145; type: cell-based, human; conditions: Homo sapiens
Procedure: (§1) The SRB Assay was used to determine cell number during cytotoxocity experiments. The following protocol was used: • 1. […] Experimental cultures were cultured in 96-well microtiter plates (200 uL growth medium per well; 1,000-200,000 cells per well). • 3. Cultures were fixed with 50 uL 50% TCA (4° C.). (see cell fixation protocol for details). • 4. Fixed cells were stained with 50 uL 0.4% (wt/vol) SRB in 1% acetic acid for 10 minutes. • 5. SRB was removed and the cultures were quickly* rinsed 5 times with 1% acetic acid to remove unbound dye.** • 6. Cultures were air-dried overnight until there is no visible moisture. • 7. […] Absorbance was read at 540 nm. • * quickly performing rinsing process is to prevent desorption of protein-bound SRB • ** completely remove residual wash solution by sharply flicking plates over sink. Fixation of Cells Attached to the Plastic Substratum
(§2) The following protocol was used for fixing cells: • a. 50 uL of 50% TCA (4° C.) were gently layered on the top of growth medium in each well to make a final TCA concentration of 10%. • b. Cultures were incubated at 4° C. for 1 hour. • c. Cultures were washed 5 times with tap water to remove TCA, growth medium, low-molecular-weight metabolites, and serum protein. • d. Plates were air-dried until there was no visible moisture.

[2] = system: PC-3 bone metastatic prostate cancer cell line; experiment: Cytotoxicity, SRB assay, PC-3; type: cell-based, human; conditions: Homo sapiens
Procedure: PPC-1, LNCaP, TSU, PC-3, and DU145 were grown in PRMI-1640 medium containing 2 mM L-glutamine supplemented with 10% fetal bovine serum (FBS). Cells were maintained in a 5% CO2/95% air humidified atomosphere at 37° C.
(§3) The SRB Assay was used to determine cell number during cytotoxocity experiments. The following protocol was used: • 1. Cells were detached with 0.25% trypsin. • 2. Experimental cultures were cultured in 96-well microtiter plates (200 uL growth medium per well; 1,000-200,000 cells per well). • 3. Cultures were fixed with 50 uL 50% TCA (4° C.). (see cell fixation protocol for details). • 4. Fixed cells were stained with 50 uL 0.4% (wt/vol) SRB in 1% acetic acid for 10 minutes. • 5. SRB was removed and the cultures were quickly* rinsed 5 times with 1% acetic acid to remove unbound dye.** • 6. Cultures were air-dried overnight until there is no visible moisture. • 7. The cellular protein-bound SRB was dissolved with 200 uL unbuffered Tris base (10 mM, pH 10.5) for 30 minutes on a rocking platform shaker. • 8. Absorbance was read at 540 nm. • * quickly performing rinsing process is to prevent desorption of protein-bound SRB • ** completely remove residual wash solution by sharply flicking plates over sink. Fixation of Cells Attached to the Plastic Substratum
as §2

[3] = system: TSU prostate cancer cell line; experiment: Cytotoxicity, SRB assay, TSU; type: cell-based, human; conditions: Homo sapiens, read-out: IC50 TSU
Procedure: as §1, §2

[4] = system: PPC-1 prostate cancer cell line; experiment: Cytotoxicity, SRB assay, PPC-1; type: cell-based, human; conditions: Homo sapiens
Procedure: as §1, §2

[5] = system: AR-expressing LNCaP prostate cancer cell line; experiment: Cytotoxicity, SRB assay, LNCaP; type: cell-based, human; conditions: Homo sapiens, LNCaP
Procedure: as §1, §2

[6] = system: TCCSUP bladder cancer cell line; experiment: Cytotoxicity, SRB assay, TCCSUP; type: cell-based, human; conditions: Homo sapiens, TCC-SUP, read-out: IC50 TCCSUP
Procedure: as §1, §2

[7] = system: HT-29 colorectal adenocarcinoma cell line; experiment: Cytotoxicity, SRB assay, HT-29; type: cell-based, human; conditions: Homo sapiens
Procedure: as §1, §2

CV-1 control cell line = experiment: Cytotoxicity, SRB assay, CV-1 control; type: cell-based, African green monkey; conditions: Chlorocebus sabaeus
Procedure: as §3, §2

LNCaP cells = experiment: Induction of apoptosis, LNCaP; type: cell-based, human
Procedure: (§4) The ability of DJ 1-31, DJ 1-29, S-NTBA and Compound V to induce apoptosis in different prostate cancer cell lines (DU 145, PC-3, TSU, PPC-1 and LNCaP), in other cancer cell lines (TCCSUP, HT-29 and MCF-7) and in a control cell line (CV-1) was determined and the results are shown in Table 6.

DU 145 cells = experiment: Induction of apoptosis, DU 145; type: cell-based, human
Procedure: as §4

PC-3 cells = experiment: Induction of apoptosis, PC-3; type: cell-based, human
Procedure: as §4

PPC-1 cells = experiment: Induction of apoptosis, PPC-1; type: cell-based, human
Procedure: as §4

TSU cells = experiment: Induction of apoptosis, TSU; type: cell-based, human
Procedure: as §4

HT-29 cells = experiment: Induction of apoptosis, HT-29; type: cell-based, human
Procedure: as §4

TCCSUP cells = experiment: Induction of apoptosis, TCCSUP; type: cell-based, human
Procedure: as §4

MCF-7 cells = experiment: Induction of apoptosis, MCF-7; type: cell-based
Procedure: as §4

CV-1 cells = experiment: Induction of apoptosis, CV-1; type: cell-based, African green monkey
Procedure: as §4

[8] = 24 h, read-out: IC50 LNCaP 24 hr treatment
[9] = 144 h, read-out: IC50 LNCaP 6 day treatment

## C[C@](O)(CSc1ccc(NC(=O)CCl)cc1)C(=O)Nc1ccc(C#N)c(C(F)(F)F)c1 [R-CTF-T-CA-1]
[1]; DU-145, read-out: IC50 DU145
  IC50: 2.6 ± 0.1 µM
[2]; 24 h, read-out: IC50 PC-3 24 hr treatment
  IC50: 5800 nM
[2]; 96 h, read-out: IC50 PC-3 4 day treatment
  IC50: 4300 nM
[2]; read-out: IC50 PC-3
  IC50: 6100 ± 500 nM
[3]
  IC50: 1.5 ± 0.2 µM
[4]; PPC-1, read-out: IC50 PPC-1
  IC50: 2.5 ± 0.1 µM
[5]; [8]
  IC50: 3.5 µM
[5]; [9]
  IC50: 1.7 µM
[5]; read-out: IC50 LNCaP
  IC50: 1.1 ± 0.2 µM
[6]
  IC50: 1.8 ± 0.2 µM
[7]; HT-29, read-out: IC50 HT-29
  IC50: 6.4 ± 0.5 µM
CV-1 control cell line; 24 h, read-out: IC50 CV-1 24 hr treatment
  IC50: 6.2 ± 0.2 µM
CV-1 control cell line; 96 h, read-out: IC50 CV-1 4 day treatment
  IC50: 4.2 µM
CV-1 control cell line; read-out: IC50 CV-1 (Control)
  IC50: 2.7 ± 1 µM

## C[C@@](O)(CBr)C(=O)Nc1ccc([N+](=O)[O-])c(C(F)(F)F)c1 [S-NTBA]
[1]; DU-145, Table 2A, Example 1, read-out: IC50 DU145
  IC50: 4.7 ± 0.3 µM
[2]; 96 h, 4 day treatment, Example 3, read-out: IC50 PC-3 4 day treatment
  IC50: 18000 nM
[2]; 24 hr treatment, Example 3, read-out: IC50 PC-3 24 hr treatment
  IC50: > 50000 nM
[2]; Table 2A, Example 1, read-out: IC50 PC-3
  IC50: 3100 ± 600 nM
[3]; Table 2A, Example 1
  IC50: 3.5 ± 0.2 µM
[4]; PPC-1, Table 2A, Example 1, read-out: IC50 PPC-1
  IC50: 2.2 ± 0.2 µM
[5]; [8]
  IC50: 4.4 µM
[5]; [9]
  IC50: 2.1 µM
[5]; read-out: IC50 LNCaP
  IC50: 1.4 ± 0.2 µM
[6]; Table 2B, Example 1
  IC50: 2.4 ± 0.3 µM
[7]; HT-29, Table 2B, Example 1, read-out: IC50 HT-29
  IC50: 6.3 ± 0.3 µM
CV-1 control cell line; 24 h, drug incubation time 1 day, Example 4, read-out: IC50 CV-1
  IC50: > 50 µM
CV-1 control cell line; 96 h, 4 day treatment, Example 2, read-out: IC50 CV-1 4 day treatment
  IC50: 4.9 µM
CV-1 control cell line; 96 h, drug incubation time 4 day, Example 4, read-out: IC50 CV-1
  IC50: 38.6 ± 3.6 µM
CV-1 control cell line; 24 hr treatment, Example 2, read-out: IC50 CV-1 24 hr treatment
  IC50: 48.2 ± 10.9 µM
CV-1 control cell line; Table 2B, Example 1, read-out: IC50 CV-1 (Control)
  IC50: 12.7 ± 0.3 µM
LNCaP cells
  Enrichment factor LNCaP: 0.660
DU 145 cells
  Enrichment factor DU 145: 1.929
PC-3 cells
  Enrichment factor PC-3: 0.750
PPC-1 cells
  Enrichment factor PPC-1: 0.697
TSU cells
  Enrichment factor TSU: 0.705
HT-29 cells
  Enrichment factor HT-29: 1.538
TCCSUP cells
  Enrichment factor TCCSUP: 0.118
MCF-7 cells
  Enrichment factor MCF-7: 2.012
CV-1 cells
  Enrichment factor CV-1: 0.393

## CC(=O)O[C@H]1C(=O)[C@@]2(C)[C@H]([C@H](OC(=O)c3ccccc3)[C@]3(O)C[C@H](OC(=O)[C@H](O)[C@@H](NC(=O)c4ccccc4)c4ccccc4)C(C)=C1C3(C)C)[C@]1(OC(C)=O)CO[C@@H]1C[C@@H]2O [Taxol, reference compound]
[1]; DU-145, read-out: IC50 DU145
  IC50: 0.0027 ± 0.0003 µM
[2]; Table 2A, Taxol in nM, read-out: IC50 PC-3
  IC50: 6.3 ± 0.6 nM
[3]
  IC50: 0.0024 ± 0.0008 µM
[4]; PPC-1, read-out: IC50 PPC-1
  IC50: 0.0027 ± 0.0003 µM
[5]; read-out: IC50 LNCaP
  IC50: 0.0019 ± 0.0003 µM
[6]
  IC50: 0.0043 ± 0.0006 µM
[7]; HT-29, read-out: IC50 HT-29
  IC50: 0.0066 ± 0.0006 µM
